The text below walks through data of US20220324803A1 (Teon Therapeutics, Inc., priority 2019, published 2022).

A value given as a limit tells only on which side of the number the result lay.

The target in assay [1] is T1, human Prostanoid EP4 Receptor (EP4) (Homo sapiens, UniProt P35408).
T1 construct: expressed in transfected cells; host or cells: HEK293 (G418 selection); membranes prepared by differential centrifugation
Kind of assay: Prostanoid EP4 binding assay (3H-prostaglandin E2 displacement, cell membranes). As to conditions: HEK293 cell membranes with human EP4, 3H-prostaglandin E2, 24° C. The protocol: HEK293 cells transfected with human Prostanoid EP4 Receptor (EP4) are maintained in DMEM supplemented with L-Glutamine, 10% FBS and 300 μg/ml G418. Cells are harvested and membranes prepared by differential centrifugation, following lysis of the cells in the presence of protease inhibitors, for use in the receptor binding assay. EP4 binding assay is performed in 50 mM HEPES pH7.4, 5 mM MgCl2, 1 mM CaCl2) and 0.2% BSA. Testing compounds are diluted with DMSO to make 8-point 4-fold serial dilution. Cell membrane homogenates are incubated at 24° C. with ^3H-prostaglandin E2 in the absence or presence of the testing compound in assay buffer. Nonspecific binding (Low control: LC) and total binding (High control: HC) are determined in the presence or absence of saturated cold ligand Prostaglandin E2 (PGE2). Specific binding is calculated by subtracting nonspecific binding from total binding. When binding assays are completed, the reaction mixture is filtered rapidly under vacuum through glass fiber filters (GF/C, Packard) presoaked with 0.5% BSA for at least 0.5 hour at room temperature and then washed for 4 times with cold wash buffer (50 mM HEPES pH7.4, 500 mM NaCl, 0.1% BSA) using a 96-sample Perkin Elmer Filtermate Harvester (Unifilter, Packard). The filters are dried for 1 hour at 50 degrees then counted for radioactivity in a scintillation counter using Perkin Elmer Microscint 20 cocktail. ^3H trapped on filter is counted using Perkin Elmer MicroBeta2 Reader. Inhibition is calculated using following equation: % Inhibition=(1−(Assay well−Average_LC)/(Average_HC−Average_LC))×100%. The results are expressed as a percent inhibition of the control radioligand specific binding. Data are analyzed and IC50 is calculated using GraphPad Prism 5 and the model “log(inhibitor) vs. response—Variable slope”. The binding affinity of the compounds is determined by using the Cheng and Prusoff equation Ki=IC50/(1+[radioligand]/Kd).

Assay [2] deals with T2, human Prostanoid EP2 Receptor (EP2) (Homo sapiens, UniProt P43116).
T2 construct: expressed in transfected cells; host or cells: CHO (G418 selection)
T2 sequence (P43116 whole entry): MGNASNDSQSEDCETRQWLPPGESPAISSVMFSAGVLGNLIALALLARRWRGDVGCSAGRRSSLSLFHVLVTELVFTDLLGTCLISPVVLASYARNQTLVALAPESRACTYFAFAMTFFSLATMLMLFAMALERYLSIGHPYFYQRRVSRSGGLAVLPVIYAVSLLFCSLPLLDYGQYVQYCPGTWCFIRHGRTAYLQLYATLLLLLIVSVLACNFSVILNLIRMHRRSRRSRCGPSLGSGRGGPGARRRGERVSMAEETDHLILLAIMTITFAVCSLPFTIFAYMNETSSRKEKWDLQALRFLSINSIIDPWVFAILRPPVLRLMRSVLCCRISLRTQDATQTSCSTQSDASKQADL
As to the kind of experiment: Prostanoid EP2 FLIPR assay (calcium flux, PGE2 addition). As to conditions: CHO cells transfected with human EP2, Fluo-4 calcium dye. It counts as cell-based. The protocol:
(§1) HEK293 cells transfected with human Prostanoid EP4 Receptor (EP4) or CHO cells transfected with human Prostanoid EP2 Receptor (EP2) are maintained in DMEM supplemented with L-Glutamine, 10% FBS and 300 μg/ml G418. Cells are plated at 20,000 cells/well in black 384-well Poly-D-Lysine protein coating plate and incubated at 37° C., 5% CO2 for 24 h. Prior to the assay, calcium-sensitive dye Fluo-4 Direct™ (Molecular Devices) is reconstituted according to manufacturer instructions. The reconstituted dye was diluted in assay buffer (1× HBSS, 20 mM HEPES, and 2.5 mM Probenicid, pH 7.4). Growth media is removed and 20 μl of this diluted dye is added to each well at a final concentration of 2 μM. Plates are incubated for 50 min at 37° C. 5% C02 and 10 min at RT after dye addition. Testing compounds are diluted with DMSO to make 10-point 4-fold serial dilution. After the pre-treatment incubation, fluorescence intensity is measured on a FlexStation II fluorometric imaging plate reader (Molecular Devices). Relative fluorescence units (RFU) are measured before (20 readings) and after (40 readings) the PGE2 addition for a total 60 sec read time (Excitation=485 nm, Emission=525 nm). Data are analyzed and IC50 is calculated using GraphPad Prism 5 and the model “log(inhibitor) vs. response—Variable slope”.
(§2) Illustrative data for representative compounds are described in Table 2.
(In general: A change in cytosolic calcium serves as a functional read-out for many receptors and channels.)

Assay [3] concerns the target T1, human Prostanoid EP4 Receptor (EP4). As to the kind of experiment: Prostanoid EP4 FLIPR assay (calcium flux, PGE2 addition). To be noted: HEK293 cells transfected with human EP4, Fluo-4 calcium dye. It counts as cell-based. The protocol: as §1, §2
The test system of assay [4] is aberrant crypt foci and intestinal polyps. To be noted: mouse disease model; Mutoh et al. 2002; cited from earlier work.
Assay [5] has as its system human inflammatory breast cancer cells. To be noted: Robertson et al. 2008; cited from earlier work.
Assay [6] concerns murine mammary tumour cells. As to conditions: mouse, in vivo; cited from earlier work.
The test system of assay [7] is castration-resistant prostate cancer. To be noted: mouse xenograft disease model; Terada et al. 2010; cited from earlier work.
A further assay relates to human NSCLC. As to conditions: in vitro; cited from earlier work.

T1 sequence (P35408 whole entry): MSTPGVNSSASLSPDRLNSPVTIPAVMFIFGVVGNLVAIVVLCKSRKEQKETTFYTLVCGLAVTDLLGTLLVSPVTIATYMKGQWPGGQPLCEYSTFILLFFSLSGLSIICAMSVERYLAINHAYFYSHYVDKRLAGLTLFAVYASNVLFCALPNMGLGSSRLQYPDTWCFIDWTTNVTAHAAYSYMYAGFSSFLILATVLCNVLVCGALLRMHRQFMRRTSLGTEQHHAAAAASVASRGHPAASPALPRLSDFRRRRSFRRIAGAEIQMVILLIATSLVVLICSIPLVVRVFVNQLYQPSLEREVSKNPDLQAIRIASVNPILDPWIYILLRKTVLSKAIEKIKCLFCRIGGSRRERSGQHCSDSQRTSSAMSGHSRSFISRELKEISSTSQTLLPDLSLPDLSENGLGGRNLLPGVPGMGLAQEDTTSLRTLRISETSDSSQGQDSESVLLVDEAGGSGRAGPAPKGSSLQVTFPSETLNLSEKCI

The compound `CCn1nc(C(=O)N[C@@H](C)c2ccc(C(=O)O)cc2)c2c(Cc3ccc(C(F)(F)F)cc3)cccc21` [Compound 9, 4-[(1S)-1-[[1-ethyl-4-[[4-(trifluoromethyl)phenyl]methyl]indazole-3-carbonyl]amino]ethyl]benzoic acid] returned a Ki in assay [1] of less than 0.1 µM. In addition, the half-inhibitory concentration (IC50) is more than 1 µM in assay [2] and less than 0.1 µM in assay [3].
In the case of `O=C(NC1CC2(C1)CC(C(=O)O)C2)c1n[nH]c2cccc(Cc3ccc(C(F)(F)F)cc3)c12` (stereo not drawn) [Compound 8, 2-[[4-[[4-(trifluoromethyl)phenyl]methyl]-1H-indazole-3-carbonyl]amino]spiro[3.3]heptane-6-carboxylic acid], the inhibition constant Ki in assay [1] was less than 0.1 µM. Also, the IC50 in assay [2] was more than 1 µM; in assay [3] it was less than 0.1 µM.
On to `C[C@H](NC(=O)c1cnn2cccc(Cc3ccc(C(F)(F)F)cc3)c12)c1ccc(C(=O)O)cc1` [Compound 1, 4-[(1S)-1-[[4-[[4-(trifluoromethyl)phenyl]methyl]pyrazolo[1,5-a]pyridine-3-carbonyl]amino]ethyl]benzoic acid], for which, in assay [1], the inhibitory constant (Ki) was less than 0.1 µM. The half-maximal inhibitory concentration (IC50) was more than 1 µM in assay [2] and less than 0.1 µM in assay [3].
In turn, `O=C(NC1CC2(C1)CC(C(=O)O)C2)c1cnn2cccc(Cc3ccc(C(F)(F)F)cc3)c12` (stereo not drawn) [Compound 2, 2-[[4-[[4-(trifluoromethyl)phenyl]methyl]pyrazolo[1,5-a]pyridine-3-carbonyl]amino]spiro[3.3]heptane-6-carboxylic acid] yielded a Ki in assay [1] of less than 0.1 µM. Further, the IC50 was more than 1 µM in assay [2] and less than 0.1 µM in assay [3].
For the compound `O=C(N[C@H]1CC2(C1)C[C@H](C(=O)O)C2)c1cnn2cccc(Cc3ccc(C(F)(F)F)cc3)c12` (single isomer, unassigned) [Compound 14B, trans-2-[[4-[[4-(trifluoromethyl)phenyl]methyl]pyrazolo[1,5-a]pyridine-3-carbonyl]amino]spiro[3.3]heptane-6-carboxylic acid], in assay [1], the Ki is less than 0.1 µM. The IC50 in assay [2] is more than 1 µM; in assay [3] it was less than 0.1 µM.
For `CC(C(=O)Nc1ccccc1Cc1ccccc1C(=O)O)c1cccc2ccccc12` (stereo not drawn) [ONO-AE2-227], the “formation of aberrant crypt foci and intestinal polyps” value in assay [4] was “reduced the formation of aberrant crypt foci and intestinal polyps”.
`CCn1nc2cccc(Cc3ccc(C(F)(F)F)cc3)c2c1C(=O)N[C@@H](C)c1ccc(C(=O)O)cc1` [Compound 10, 4-[(1S)-1-[[2-ethyl-4-[[4-(trifluoromethyl)phenyl]methyl]indazole-3-carbonyl]amino]ethyl]benzoic acid] yielded an inhibition constant (Ki) in assay [1] of 0.1 to 0.499 µM. For the same compound, the IC50 is more than 1 µM in assay [2] and less than 0.1 µM in assay [3].
On the same counts, the results for `O=C(N[C@H]1CC2(C1)C[C@H](C(=O)O)C2)c1cnn2cccc(Cc3ccc(C(F)(F)F)cc3)c12` (single isomer, unassigned) [Compound 14A, cis-6-[[4-[[4-(trifluoromethyl)phenyl]methyl]pyrazolo[1,5-a]pyridine-3-carbonyl]amino]spiro[3.3]heptane-2-carboxylic acid] are 0.1 to 0.499 µM, more than 1 µM and 0.1 to 0.499 µM.
As for `O=C(O)CC12CC(NC(=O)c3cnn4cccc(Cc5cccc(C(F)(F)F)c5)c34)(C1)C2` [Compound 16, 2-[3-[[4-[[3-(trifluoromethyl)phenyl]methyl]pyrazolo[1,5-a]pyridine-3-carbonyl]amino]-1-bicyclo[1.1.1]pentanyl]acetic acid], the Ki in assay [1] is more than 0.5 µM. Further, the 50% inhibitory concentration (IC50) in assay [3] was 0.1 to 0.499 µM.
For the compound `C[C@H](NC(=O)c1cnn2cccc(Cc3cc4ccccc4cn3)c12)c1ccc(C(=O)O)cc1` [Compound 12, 4-[(1S)-1-[[4-(3-isoquinolylmethyl)pyrazolo[1,5-a]pyridine-3-carbonyl]amino]ethyl]benzoic acid], in assay [1], the inhibitory constant (Ki) was less than 0.1 µM. In addition, the IC50 was more than 1 µM in assay [2] and less than 0.1 µM in assay [3].
Compound `O=C(O)CC12CC(NC(=O)c3n[nH]c4cccc(Cc5ccc(C(F)(F)F)cc5)c34)(C1)C2` [Compound 18, 2-(3-(4-(4-(trifluoromethyl)benzyl)-1H-indazole-3-carboxamido)bicyclo[1.1.1]pentan-1-yl)acetic acid] came in with a Ki in assay [1] of 0.1 to 0.499 µM. Besides, in assay [3], the IC50 is less than 0.1 µM.
On to `C[C@H](NC(=O)c1n[nH]c2cccc(Cc3ccc(C(F)(F)F)cc3)c12)c1ccc(C(=O)O)cc1` [Compound 7, 4-[(1S)-1-[[4-[[4-(trifluoromethyl)phenyl]methyl]-1H-indazole-3-carbonyl]amino]ethyl]benzoic acid], for which the Ki in assay [1] was less than 0.1 µM. For the same compound, the results for the IC50 in assay [2] and in assay [3] were more than 1 µM and less than 0.1 µM, respectively.
In assay [1], `O=C(NC1CC2(C1)CC(C(=O)O)C2)c1cnn2cccc(Cc3cccc(C(F)(F)F)c3)c12` (stereo not drawn) [Compound 4, 2-[[4-[[3-(trifluoromethyl)phenyl]methyl]pyrazolo[1,5-a]pyridine-3-carbonyl]amino]spiro[3.3]heptane-6-carboxylic acid] registered a Ki of less than 0.1 µM. Besides, the concentration for half-maximal inhibition (IC50) in assay [2] was more than 1 µM; in assay [3], less than 0.1 µM.
Take `CCOc1c2c(c(OCC)c3ccccc13)C(=O)N(c1ccc(CC(=O)NS(=O)(=O)c3ccccc3)cc1)C2` [GW-627368X]: the “proliferation and invasion of human inflammatory breast cancer cells” value in assay [5] is “selectively inhibited both proliferation and invasion”.
In turn, `O=C(O)CC12CC(NC(=O)c3cnn4cccc(Cc5ccc(C(F)(F)F)cc5)c34)(C1)C2` [Compound 15, 2-[3-[[4-[[4-(trifluoromethyl)phenyl]methyl]pyrazolo[1,5-a]pyridine-3-carbonyl]amino]-1-bicyclo[1.1.1]pentanyl]acetic acid] displayed an inhibition constant Ki in assay [1] of less than 0.1 µM. In addition, the half-maximal inhibitory concentration (IC50) in assay [2] was more than 1 µM; in assay [3], less than 0.1 µM.
As to `CC(C(=O)Nc1cc(C#N)ccc1CCCC(=O)O)c1ccc(F)c2ccccc12` (stereo not drawn) [ONO-AE3-208], the “metastasis of murine mammary tumour cells” value in assay [6] was “reduced metastasis”. In addition, the “castration-resistant prostate cancer progression” value in assay [7] is “suppressed castration-resistant prostate cancer progression”.
Take `C[C@H](NC(=O)c1cnn2cccc(Cc3cccc(C(F)(F)F)c3)c12)c1ccc(C(=O)O)cc1` [Compound 3, 4-[(1S)-1-[[4-[[3-(trifluoromethyl)phenyl]methyl]pyrazolo[1,5-a]pyridine-3-carbonyl]amino]ethyl]benzoic acid]: the Ki in assay [1] is less than 0.1 µM. For the same compound, the half-inhibitory concentration (IC50) is more than 1 µM in assay [2] and less than 0.1 µM in assay [3].
For the compound `O=C(NC1CC2(C1)CC(C(=O)O)C2)c1cnn2cccc(Cc3cc4ccccc4cn3)c12` (single isomer, unassigned) [Compound 13A, cis-2-[[4-(3-isoquinolylmethyl)pyrazolo[1,5-a]pyridine-3-carbonyl]amino]spiro[3.3]heptane-6-carboxylic acid], the Ki in assay [1] is more than 0.5 µM. For the same compound, the IC50 in assay [3] is 0.1 to 0.499 µM.
In the case of `O=C(O)CC/C=C\CC[C@H]1[C@H](N2CCOCC2)C(=O)C[C@H]1OCc1ccc(-c2ccccc2)cc1` [AH-23848], the “metastasis of murine mammary tumour cells” value in assay [6] is given as “reduced metastasis”. Also, in the assay on human NSCLC, the “tumorigenic effects of PGE2 on human NSCLC growth” value is “successfully inhibited”.

One may read the Ki as the equilibrium dissociation constant of an inhibitor or competing ligand from its target. High values mean a looser hold on the target, low ones a stronger hold on the target. A word on the IC50: it is the point on the concentration scale where inhibition reaches its midpoint.
